In patent US9132129B2, “Antiviral compounds” (KATHOLIEKE UNIVERSITEIT LEUVEN, priority 2010, dated 2015) one finds CC50 and EC50 data, which are given here for six molecules.

A value given as a limit tells only on which side of the number the result lay.

As a reminder, the CC50 is the concentration giving 50% cytotoxicity. A high value points to better tolerance by the cells. By EC50 is commonly meant the concentration needed to bring the measured effect to its halfway point. Read a low EC50 as higher potency in that assay.

What all share (type): cell-based
Series [1] in a line: MT4 cytotoxicity in mock-infected cells (MTT). The following applies: human, mock-infected MT-4 cells. As to the method: A rapid and automated assay procedure was used for the in vitro evaluation of anti-HIV agents. An HTLV-1 transformed T4-cell line MT-4, which was previously shown to be highly susceptible to and permissive for HIV infection, served as the target cell line. Inhibition of the HIV-induced cytopathogenic effect was used as the end point. The viability of both HIV- and mock-infected cells was assessed spectrophotometrically via in situ reduction of 3-(4,5-dimethylthiazol-2-yl)-2,5-diphenyltetrazolium bromide (MTT). […] The percent protection achieved by the compound in HIV-infected cells was calculated by the following formula: […]
Examples of inhibition of cell proliferation by particular compounds of the invention can be found by looking at the respective CC50 values in the MT-4 cell line.
(§1) Cells: MT-4 cells (Miyoshi et al., 1982) were grown and maintained in RPMI 1640medium supplemented with 10% heat-inactivated fetal calf serum, 2 mM I-glutamine, 0.1% sodium bicarbonate, and 20æg of gentamicin per ml.

The subject of another series is HIV-1(NL4.3). Description: MT4 based cytopathic effect assay (anti-HIV activity). The following applies: Human immunodeficiency virus 1, MT4; HIV-infected MT-4 cells, MTT, 50% protection. Here is the method: MT4 based Cytopathic Effect Assay
A rapid and automated assay procedure was used for the in vitro evaluation of anti-HIV agents. An HTLV-1 transformed T4-cell line MT-4, which was previously shown to be highly susceptible to and permissive for HIV infection, served as the target cell line. Inhibition of the HIV-induced cytopathogenic effect was used as the end point. The viability of both HIV- and mock-infected cells was assessed spectrophotometrically via in situ reduction of 3-(4,5-dimethylthiazol-2-yl)-2,5-diphenyltetrazolium bromide (MTT). […] The percent protection achieved by the compound in HIV-infected cells was calculated by the following formula:
[formula] whereby (ODT)HIV is the optical density measured with a given concentration of the test compound in HIV-infected cells; (ODC)HIV is the optical density measured for the control untreated HIV-infected cells; (ODC)MOCK is the optical density measured for the control untreated mock-infected cells; all optical density values were determined at 540 nm. […] The ratio of CC50 to EC50 was defined as the selectivity index (SI).
as §1
Viruses: The HIV-1(NL4.3) strain (Adachi et al., 1986) is a molecular clone obtained from the National Institutes of Health (Bethesda, Md.).
For orientation: Protection from cytopathic effect is a common read-out in antiviral testing.

A further series is described as follows: in vitro. The following applies: human. Here is the method:
The MT-2 based antiviral assay requires a separate cytotoxicity assessment of the compounds. This was performed using a 3 day MT-2 cytotoxicity assay as follows:
3 Day MT2 Cytotoxicity Assay (S8738E)
The assay is designed to test whether or not compounds have cytotoxic activity in MT2 cells by measuring the viability of these cells in the presence of compounds. The assay is carried out by adding MT2 assay plates containing serial dilutions of the compounds to be screened. After 3 days incubation, the viability of the cells remaining in the plates is assayed using the commercially available reagent CellTiter-Glo (Promega Ltd).

The subject of series [2] is HIV-1 virus (NL4.3 strain). Nature of the series: MT-2 based antiviral assay (S8737E). The following applies: Human immunodeficiency virus 1, 72 h; MT2 cells, 3 days, JC53BL β-Gal reporter readout. The source says: MT-2 Based Antiviral Assay (S8737E)
Much like the MT-4 based cytopathic effect assay, this assay is designed to determine the effects of small molecules on the replication of HIV-1 in the lymphobastoid cell line, MT2, and is able to detect the antiviral effect of compounds acting at any stage of the HIV-1 replication cycle. The assay, along with its associated cytotoxicity assay, was described in detail in 2005 in a paper by Cao et al (Antimicrobial Agents and Chemotherapy 2005; 49(9), p 3833-3841).
Briefly; MT2 cells are infected with the HIV-1 virus (NL4.3 strain) and transferred to assay plates containing serial dilutions of compounds to be tested. The assay plates are incubated for 3 days (MT2) to allow for several rounds of viral replication/infection to take place. At the end of this time, supernatant is transferred into new plates containing JC53BL cells.
JC53BL cells express CXCR4, CCR5 and CD4 receptors, and HIV-1-LTR-β-Gal. Under normal culture conditions undetectable levels of β-Galactosidase are expressed, but in the presence of HIV-1, the viral Tat protein is able to activate the HIV-1-LTR in the JC53BL cells resulting in the increased expression of the β-Gal enzyme. The expression can be measured using the ‘FluorAce β-Galactosidase reporter’ assay. The levels of β-Gal are directly proportional to the levels of Tat (up to a threshold) allowing virus quantification. Compounds that inhibit virus replication will give rise to a reduced signal and a dose-response curve for each compound can be generated. This is then used to determine the IC50 for each compound, a measure of the compound's potency, in a manner similar to the MT-4 based cytopathic effect assay.

`CCCC(C(=O)O)c1c(C)nc2cc3c(cc2c1-c1ccc(C)cc1)CCCC3` (centres unmarked) [Cpd001, 2-(-2-methyl-4-p-tolyl-6,7,8,9-tetrahydrobenzo[g]quinolin-3-yl)pentanoic acid] had a half-maximal cytotoxic concentration (CC50) in series [1] of 92 µM. The molecule further registered an EC50 with HIV-1(NL4.3) of 1.45 µM.
Molecule `Cc1ccc(-c2c(C(OC(C)(C)C)C(=O)O)c(C)nc3cc4c(cc23)CCCC4)cc1` (centres unmarked) [Cpd002, tert-butoxy-(2-methyl-4-p-tolyl-6,7,8,9-tetrahydro-benzo[g]quinolin-3-yl)-acetic acid] registered a CC50 at 3 days in the series “in vitro” above 10 µM. Also, in series [2], the EC50 is 0.46 µM.
In turn, `CCCC(C(=O)O)c1c(C)nc2ccc3c(c2c1-c1ccc(C)cc1)CCCC3` (centres unmarked) [Cpd003, 2-(3-methyl-1-4-p-tolyl-7,8,9,10-tetrahydrobenzo[f]quinolin-2-yl)pentanoic acid] came in with a half-maximal cytotoxic concentration (CC50) in series [1] of 92 µM. Besides, the EC50 in the series on HIV-1(NL4.3) stood at 1.45 µM.
In series [1], `CCCC(C(=O)O)c1c(C)nc2cc3c(cc2c1-c1ccc(C)cc1)CCC3` (centres unmarked) [Cpd012, 2-(2-methyl-4-p-tolyl-7,8-dihydro-6H-cyclopenta[g]quinolin-3-yl)pentanoic acid] yielded a CC50 of 82 µM. The values for the EC50 (in the series with HIV-1(NL4.3); in series [2]) were 0.53 µM and 1.68 µM, respectively. In “in vitro”, this molecule showed a half-maximal cytotoxic concentration (CC50) at 3 days above 20 µM.
Molecule `CCCC(C(=O)O)c1c(C)nc2ccc3c(c2c1-c1ccc(C)cc1)CCC3` (centres unmarked) [Cpd023, 2-(3-methyl-1-p-tolyl-8,9-dihydro-7H-cyclopenta[f]quinolin-2-yl)pentanoic acid] displayed a CC50 in series [1] of 114 µM. Further, in the series on HIV-1(NL4.3), the 50% effective concentration (EC50) came to 4.5 µM.
For `CCCC(C(=O)O)c1c(C)nc2c3ccccc3nn2c1-c1ccc(C)cc1` (centres unmarked) [Cpd047, 2-(2-methyl-4-p-tolylpyrimido[1,2-b]indazol-3-yl)pentanoic acid], half-maximal cytotoxicity in series [1] (CC50) was put at 200 µM. In series [2], this molecule displayed an EC50 above 20 µM.
